Assay results: ChEMBL document CHEMBL4765389, “Antimicrobial and anti-inflammatory activities of short dodecapeptides derived from duck cathelicidin: Plausible mechanism of bactericidal action and endotoxin neutralization” (Eur J Med Chem, 2020)
Calls of active or inactive are those of the source. The calls are words filed in the database; no cut-off is given here.

Legend:
Escherichia coli [1] = assay: Antibacterial activity against Escherichia coli KCTC 1682 assessed as reduction in bacterial growth incubated for 24 hrs in presence of 4 uM FeCl3 by CLSI based broth dilution method; type: functional; details: read-out: MIC100
Staphylococcus aureus [2] = assay: Antibacterial activity against Staphylococcus aureus KCTC 1621 assessed as reduction in bacterial growth incubated for 24 hrs in presence of 2.5 mM CaCl2 by CLSI based broth dilution method; type: functional; details: read-out: MIC100
Staphylococcus aureus [3] = assay: Antibacterial activity against Staphylococcus aureus KCTC 1621 assessed as reduction in bacterial growth incubated for 24 hrs in presence of 1 mM MgCl2 by CLSI based broth dilution method; type: functional; details: read-out: MIC100
[4] = Cytotoxicity against mouse NIH/3T3 cells assessed as reduction in cell viability at 20 uM incubated for 24 hrs by MTT assay; type: cell-based, NIH3T3; details: NIH/3T3 cells, read-out: INH
Enterococcus faecium = assay: Antibacterial activity against vancomycin-resistant Enterococcus faecium ATCC 51559 assessed as reduction in bacterial growth incubated for 24 hrs by CLSI based broth dilution method; type: functional; details: read-out: MIC100
Staphylococcus aureus [5] = assay: Antibacterial activity against Staphylococcus aureus KCTC 1621 assessed as reduction in bacterial growth incubated for 24 hrs in presence of 4 uM FeCl3 by CLSI based broth dilution method; type: functional; details: read-out: MIC100
[6] = Antibacterial activity against multidrug-resistant Pseudomonas aeruginosa CCARM 2095 assessed as reduction in bacterial growth incubated for 24 hrs in presence of oxacillin by CLSI based broth dilution method; type: functional; details: read-out: MIC100
Bacteria [7] = assay: Antibacterial activity against Gram negative bacteria assessed as reduction in bacterial growth incubated for 24 hrs by CLSI based broth dilution method; type: functional; details: read-out: MIC100
Escherichia coli [8] = assay: Antibacterial activity against Escherichia coli KCTC 1682 assessed as reduction in bacterial growth incubated for 24 hrs in presence of 2.5 mM CaCl2 by CLSI based broth dilution method; type: functional; details: read-out: MIC100
Staphylococcus aureus [9] = assay: Antibacterial activity against methicillin-resistant Staphylococcus aureus CCARM 3090 assessed as reduction in bacterial growth incubated for 24 hrs in presence of chloramphenicol by CLSI based broth dilution method; type: functional; details: read-out: MIC100
Escherichia coli [10] = assay: Antibacterial activity against Escherichia coli KCTC 1682 assessed as reduction in bacterial growth incubated for 24 hrs by CLSI based broth dilution method; type: functional; details: read-out: MIC100
Staphylococcus aureus [11] = assay: Antibacterial activity against methicillin-resistant Staphylococcus aureus CCARM 3089 assessed as reduction in bacterial growth incubated for 24 hrs by CLSI based broth dilution method; type: functional; details: read-out: MIC100
Escherichia coli [12] = assay: Antibacterial activity against Escherichia coli KCTC 1682 assessed as reduction in bacterial growth incubated for 24 hrs in presence of 150 mM NaCl by CLSI based broth dilution method; type: functional; details: read-out: MIC100
Cell membrane [13] = assay: Induction of cell membrane permeability in Escherichia coli KCTC 1682 assessed as cytoplasmic membrane […] fluorescent signals at 2 times MIC measured after 1 hr by propidium iodide dye based flow cytometry analysis (reference value: 9.8 %); type: subcellular
[14] = Antibacterial activity against multidrug-resistant Pseudomonas aeruginosa CCARM 2095 assessed as fractional inhibitory concentration incubated for 24 hrs in presence of oxacillin by CLSI based broth dilution method; type: functional
Erythrocyte = assay: Hemolytic activity in sheep RBC assessed as reduction in hemoglobin incubated for 1 hr; type: ADME, cell-based, Ovis aries
[15] = Antibacterial activity against multidrug-resistant Pseudomonas aeruginosa CCARM 2095 assessed as fractional inhibitory concentration index incubated for 24 hrs in presence of oxacillin by CLSI based broth dilution method; type: functional
Bacteria [16] = assay: Antibacterial activity against Gram positive bacteria assessed as reduction in bacterial growth incubated for 24 hrs by CLSI based broth dilution method; type: functional; details: read-out: MIC100
[17] = Antibacterial activity against multidrug-resistant Pseudomonas aeruginosa CCARM 2095 assessed as reduction in bacterial growth incubated for 24 hrs by CLSI based broth dilution method; type: functional; details: read-out: MIC100
Cell membrane [18] = assay: Induction of cell membrane permeability in Escherichia coli KCTC 1682 assessed as […] at 16 uM by ONPG dye based spectrophotometry; type: subcellular
Saccharomyces cerevisiae = assay: Antifungal activity against yeast assessed as reduction in fungal growth incubated for 24 hrs by CLSI based broth dilution method; type: functional; details: read-out: MIC100
RAW264.7 = assay: Antiinflammatory activity against mouse RAW264.7 cells assessed as reduction in LPS-induced nitrite level at 5 uM incubated for 24 hrs by Griess reagent based assay relative to control; type: functional
[19] = Antibacterial activity against multidrug-resistant Pseudomonas aeruginosa CCARM 2095 assessed as fractional inhibitory concentration incubated for 24 hrs in presence of chloramphenicol by CLSI based broth dilution method; type: functional
Staphylococcus aureus [20] = assay: Antibacterial activity against Staphylococcus aureus KCTC 1621 assessed as reduction in bacterial growth incubated for 24 hrs in presence of 150 mM NaCl by CLSI based broth dilution method; type: functional; details: read-out: MIC100
Cell membrane [21] = assay: Induction of cell membrane permeability in Staphylococcus aureus KCTC 1621 assessed as cytoplasmic membrane depolarization at 16 uM by SYTOX dye based fluorescence assay; type: subcellular
[22] = Antibacterial activity against multidrug-resistant Pseudomonas aeruginosa CCARM 2095 assessed as reduction in bacterial growth incubated for 24 hrs in presence of ciprofloxacin by CLSI based broth dilution method; type: functional; details: read-out: MIC100
Lipopolysaccharide (LPS) [23] = assay: Displacement of BODIPY-TR cadaverine from Escherichia coli O111:B4 LPS measured for 100 sec by spectrofluorometry
Staphylococcus aureus [24] = assay: Antibacterial activity against methicillin-resistant Staphylococcus aureus CCARM 3090 assessed as fractional inhibitory concentration index incubated for 24 hrs in presence of chloramphenicol by CLSI based broth dilution method; type: functional
Staphylococcus aureus [25] = assay: Antibacterial activity against Staphylococcus aureus KCTC 1621 assessed as reduction in bacterial growth incubated for 24 hrs by CLSI based broth dilution method; type: functional; details: read-out: MIC100
[26] = system: Staphylococcus epidermidis; assay: Antibacterial activity against Staphylococcus epidermidis KCTC 1917 assessed as reduction in bacterial growth incubated for 24 hrs by CLSI based broth dilution method; type: functional; details: read-out: MIC100
Staphylococcus aureus [27] = assay: Antibacterial activity against methicillin-resistant Staphylococcus aureus CCARM 3090 assessed as fractional inhibitory concentration incubated for 24 hrs in presence of chloramphenicol by CLSI based broth dilution method; type: functional
Escherichia coli [28] = assay: Antibacterial activity against Escherichia coli KCTC 1682 assessed as reduction in bacterial growth incubated for 24 hrs in presence of 4.5 mM KCl by CLSI based broth dilution method; type: functional; details: read-out: MIC100
Escherichia coli [29] = assay: Antibacterial activity against Escherichia coli KCTC 1682 assessed as reduction in bacterial growth incubated for 24 hrs in presence of 20 % serum by CLSI based broth dilution method; type: functional; details: read-out: MIC100
Staphylococcus aureus [30] = assay: Antibacterial activity against Staphylococcus aureus KCTC 1621 assessed as reduction in bacterial growth incubated for 24 hrs in presence of 4.5 mM KCl by CLSI based broth dilution method; type: functional; details: read-out: MIC100
Candida albicans = assay: Antifungal activity against Candida albicans KCTC 7965 assessed as reduction in fungal growth incubated for 24 hrs by CLSI based broth dilution method; type: functional; details: read-out: MIC100
Staphylococcus aureus [31] = assay: Antibacterial activity against methicillin-resistant Staphylococcus aureus CCARM 3090 assessed as reduction in bacterial growth incubated for 24 hrs in presence of ciprofloxacin by CLSI based broth dilution method; type: functional; details: read-out: MIC100
Lipopolysaccharide (LPS) [32] = assay: Displacement of BODIPY-TR cadaverine from Escherichia coli O111:B4 LPS at 20 uM measured for 100 sec by spectrofluorometry relative to control

Substance H-LWKKIYRKWKRW-NH2 has an MIC (Escherichia coli [1]) of 8 µM, an MIC (Staphylococcus aureus [2]) of 4 µM and an MIC (Staphylococcus aureus [3]) of 4 µM. The cytotoxicity at 24 h, 20 µM [4] was < 10%, the MIC (Enterococcus faecium) was 8 µM and the MIC (Staphylococcus aureus [5]) was 8 µM. It also gave an MIC [6] of 64 µM, an MIC (Bacteria [7]) of 4 µM and an MIC (Escherichia coli [8]) of 4 µM. It also gave an MIC (Staphylococcus aureus [9]) of 32 µM, an MIC (Escherichia coli [10]) of 4 µM and an MIC (Staphylococcus aureus [11]) of 16 µM. For the same substance, the MIC (Escherichia coli [12]) was 4 µM, the Activity (Cell membrane [13]) was 6.31% and the FIC [14] was 0.125. The HC10 (Erythrocyte) was > 256 µM, the “fractional inhibitory concentration index (FICI)” value [15] was 0.375 and the MIC (Bacteria [16]) was 6.8 µM. For the same substance, the MIC [17] was 8 µM, the Activity (Cell membrane [18]) was “inactive” and the MIC (Saccharomyces cerevisiae) was 6 µM. The inhibition at 5 µM (RAW264.7) was 91.6%, the FIC [19] was 0.125 and the MIC (Staphylococcus aureus [20]) was 2 µM. The Activity (Cell membrane [21]) was “inactive”, the MIC [22] was 64 µM and the Activity (Lipopolysaccharide (LPS) [23]) was “Dose-dependent effect”. For the same substance, the “fractional inhibitory concentration index (FICI)” value (Staphylococcus aureus [24]) was 0.5, the MIC (Staphylococcus aureus [25]) was 2 µM and the MIC [26] was 4 µM. For the same substance, the FIC (Staphylococcus aureus [27]) was 0.25, the MIC (Escherichia coli [28]) was 4 µM and the MIC (Escherichia coli [29]) was 8 µM. The MIC (Staphylococcus aureus [30]) was 4 µM, the MIC (Candida albicans) was 8 µM and the MIC (Staphylococcus aureus [31]) was 64 µM.

For H-LIKKIYRKWKRW-NH2, the MIC (Escherichia coli [1]) was 8 µM, the MIC (Staphylococcus aureus [2]) was 4 µM and the MIC (Staphylococcus aureus [3]) was 4 µM. The cytotoxicity at 24 h, 20 µM [4] was < 10%, the MIC (Enterococcus faecium) was 8 µM and the MIC (Staphylococcus aureus [5]) was 8 µM. For the same substance, the MIC [6] was 64 µM, the MIC (Bacteria [7]) was 5.6 µM and the MIC (Escherichia coli [8]) was 8 µM. The MIC (Staphylococcus aureus [9]) was 32 µM, the MIC (Escherichia coli [10]) was 8 µM and the MIC (Staphylococcus aureus [11]) was 16 µM. The MIC (Escherichia coli [12]) was 4 µM, the Activity (Cell membrane [13]) was 9.53% and the FIC [14] was 0.125. The HC10 (Erythrocyte) was > 256 µM, the “fractional inhibitory concentration index (FICI)” value [15] was 0.375 and the MIC (Bacteria [16]) was 7.1 µM. The MIC [17] was 8 µM, the Activity (Cell membrane [18]) was “inactive” and the MIC (Saccharomyces cerevisiae) was 6 µM. It also gave an inhibition at 5 µM (RAW264.7) of 51.4%, an FIC [19] of 0.0625 and an Activity (Lipopolysaccharide (LPS) [32]) of 68%. The MIC (Staphylococcus aureus [20]) was 8 µM, the Activity (Cell membrane [21]) was “inactive” and the MIC [22] was 64 µM. The “fractional inhibitory concentration index (FICI)” value (Staphylococcus aureus [24]) was 0.5, the MIC (Staphylococcus aureus [25]) was 4 µM and the MIC [26] was 4 µM. It also gave an FIC (Staphylococcus aureus [27]) of 0.25, an MIC (Escherichia coli [28]) of 2 µM and an MIC (Escherichia coli [29]) of 8 µM. It also gave an MIC (Staphylococcus aureus [30]) of 4 µM, an MIC (Candida albicans) of 8 µM and an MIC (Staphylococcus aureus [31]) of 128 µM.
